Molecules are shown by their SMILES.

For four molecules, relative viability results are on record in the supplement of paper PMC10307832.

For one assay, the system named is HCC-827. Nature of the assay: relative viability (nuclei count vs DMSO), 5 days (fraction); higher = more cells survive. As to conditions: first compound 2 µM. An outline of the steps:
(§1)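 Relative viability equals treated-well nuclei counts divided by vehicle-well nuclei counts. Counts came from 4× images of lung cancer cell lines grown in 1536-well plates for 5 days after pin-tool dosing on the day after seeding. Dosing used one drug alone or a fixed anchor-drug dose plus five library-drug doses (not always all listed) in √10 steps, and values are medians of duplicate plates.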
For `COCC1(CO)C(=O)C2CCN1CC2` (stereo unspecified) [PRIMA-1MET] + N=C(N)NC(=N)NCCc1ccccc1 [Phenformin] (partner 250 µM), the relative viability is 0.344.

Turning to `COCC1(CO)C(=O)C2CCN1CC2` (stereo unspecified) [PRIMA-1MET] + CC(=O)c1c(C)c2cnc(Nc3ccc(N4CCNCC4)cn3)nc2n(C2CCCC2)c1=O [Palbociclib] (partner 0.5 µM), the relative viability worked out at 0.403.

Take `COCC1(CO)C(=O)C2CCN1CC2` (stereo unspecified) [PRIMA-1MET] + Cc1nc(Nc2ncc(C(=O)Nc3c(C)cccc3Cl)s2)cc(N2CCN(CCO)CC2)n1 [Dasatinib] (partner 0.075 µM): the relative viability worked out at 0.427.

Molecule `COCC1(CO)C(=O)C2CCN1CC2` (stereo unspecified) [PRIMA-1MET] + O=C(c1cc(Cc2n[nH]c(=O)c3ccccc23)ccc1F)N1CCN(C(=O)C2CC2)CC1 [Olaparib] (partner 8 µM) had a relative viability of 0.587.

Staying with this assay, now noted: first compound 6.325 µM.
`COCC1(CO)C(=O)C2CCN1CC2` (stereo unspecified) [PRIMA-1MET] + N=C(N)NC(=N)NCCc1ccccc1 [Phenformin] (partner 250 µM) had a relative viability of 0.367.

With `COCC1(CO)C(=O)C2CCN1CC2` (stereo unspecified) [PRIMA-1MET] + CC(=O)c1c(C)c2cnc(Nc3ccc(N4CCNCC4)cn3)nc2n(C2CCCC2)c1=O [Palbociclib] (partner 0.5 µM), the relative viability worked out at 0.506.

`COCC1(CO)C(=O)C2CCN1CC2` (stereo unspecified) [PRIMA-1MET] + Cc1nc(Nc2ncc(C(=O)Nc3c(C)cccc3Cl)s2)cc(N2CCN(CCO)CC2)n1 [Dasatinib] (partner 0.075 µM) gave a relative viability of 0.332.

Take `COCC1(CO)C(=O)C2CCN1CC2` (stereo unspecified) [PRIMA-1MET] + O=C(c1cc(Cc2n[nH]c(=O)c3ccccc23)ccc1F)N1CCN(C(=O)C2CC2)CC1 [Olaparib] (partner 8 µM): the relative viability amounted to 0.684.

The same assay, now with this note: first compound 20 µM.
`COCC1(CO)C(=O)C2CCN1CC2` (stereo unspecified) [PRIMA-1MET] + N=C(N)NC(=N)NCCc1ccccc1 [Phenformin] (partner 250 µM) came in with a relative viability of 0.372.

Regarding `COCC1(CO)C(=O)C2CCN1CC2` (stereo unspecified) [PRIMA-1MET] + CC(=O)c1c(C)c2cnc(Nc3ccc(N4CCNCC4)cn3)nc2n(C2CCCC2)c1=O [Palbociclib] (partner 0.5 µM), the relative viability is 0.615.

As for `COCC1(CO)C(=O)C2CCN1CC2` (stereo unspecified) [PRIMA-1MET] + Cc1nc(Nc2ncc(C(=O)Nc3c(C)cccc3Cl)s2)cc(N2CCN(CCO)CC2)n1 [Dasatinib] (partner 0.075 µM), the relative viability turned out to be 0.315.

With `COCC1(CO)C(=O)C2CCN1CC2` (stereo unspecified) [PRIMA-1MET] + O=C(c1cc(Cc2n[nH]c(=O)c3ccccc23)ccc1F)N1CCN(C(=O)C2CC2)CC1 [Olaparib] (partner 8 µM), the relative viability is 0.627.

A further assay has as its system LCLC-103H. Described as above. To be noted: first compound 0.2 µM. In short, it runs like this: as §1
`COCC1(CO)C(=O)C2CCN1CC2` (stereo unspecified) [PRIMA-1MET] + N=C(N)NC(=N)NCCc1ccccc1 [Phenformin] (partner 250 µM): the relative viability worked out at 0.354.

In turn, `COCC1(CO)C(=O)C2CCN1CC2` (stereo unspecified) [PRIMA-1MET] + CC(=O)c1c(C)c2cnc(Nc3ccc(N4CCNCC4)cn3)nc2n(C2CCCC2)c1=O [Palbociclib] (partner 0.5 µM) registered a relative viability of 0.488.

In the case of `COCC1(CO)C(=O)C2CCN1CC2` (stereo unspecified) [PRIMA-1MET] + Cc1nc(Nc2ncc(C(=O)Nc3c(C)cccc3Cl)s2)cc(N2CCN(CCO)CC2)n1 [Dasatinib] (partner 0.075 µM), the relative viability worked out at 0.566.

`COCC1(CO)C(=O)C2CCN1CC2` (stereo unspecified) [PRIMA-1MET] + O=C(c1cc(Cc2n[nH]c(=O)c3ccccc23)ccc1F)N1CCN(C(=O)C2CC2)CC1 [Olaparib] (partner 8 µM) gave a relative viability of 0.841.

Still in this assay, the particulars now being: first compound 0.6325 µM.
`COCC1(CO)C(=O)C2CCN1CC2` (stereo unspecified) [PRIMA-1MET] + N=C(N)NC(=N)NCCc1ccccc1 [Phenformin] (partner 250 µM) yielded a relative viability of 0.283.

Molecule `COCC1(CO)C(=O)C2CCN1CC2` (stereo unspecified) [PRIMA-1MET] + CC(=O)c1c(C)c2cnc(Nc3ccc(N4CCNCC4)cn3)nc2n(C2CCCC2)c1=O [Palbociclib] (partner 0.5 µM) had a relative viability of 0.376.

The molecule `COCC1(CO)C(=O)C2CCN1CC2` (stereo unspecified) [PRIMA-1MET] + Cc1nc(Nc2ncc(C(=O)Nc3c(C)cccc3Cl)s2)cc(N2CCN(CCO)CC2)n1 [Dasatinib] (partner 0.075 µM) gave a relative viability of 0.422.

Consider `COCC1(CO)C(=O)C2CCN1CC2` (stereo unspecified) [PRIMA-1MET] + O=C(c1cc(Cc2n[nH]c(=O)c3ccccc23)ccc1F)N1CCN(C(=O)C2CC2)CC1 [Olaparib] (partner 8 µM), for which the relative viability is 0.717.

The assay is the same for the next values; noted with them: first compound 2 µM.
For the molecule `COCC1(CO)C(=O)C2CCN1CC2` (stereo unspecified) [PRIMA-1MET] + N=C(N)NC(=N)NCCc1ccccc1 [Phenformin] (partner 250 µM), the relative viability is 0.315.

As for `COCC1(CO)C(=O)C2CCN1CC2` (stereo unspecified) [PRIMA-1MET] + CC(=O)c1c(C)c2cnc(Nc3ccc(N4CCNCC4)cn3)nc2n(C2CCCC2)c1=O [Palbociclib] (partner 0.5 µM), the relative viability amounted to 0.466.

Turning to `COCC1(CO)C(=O)C2CCN1CC2` (stereo unspecified) [PRIMA-1MET] + Cc1nc(Nc2ncc(C(=O)Nc3c(C)cccc3Cl)s2)cc(N2CCN(CCO)CC2)n1 [Dasatinib] (partner 0.075 µM), the relative viability was found to be 0.431.

Consider `COCC1(CO)C(=O)C2CCN1CC2` (stereo unspecified) [PRIMA-1MET] + O=C(c1cc(Cc2n[nH]c(=O)c3ccccc23)ccc1F)N1CCN(C(=O)C2CC2)CC1 [Olaparib] (partner 8 µM), for which the relative viability was found to be 0.711.

Staying with this assay, now noted: first compound 6.325 µM.
Consider `COCC1(CO)C(=O)C2CCN1CC2` (stereo unspecified) [PRIMA-1MET] + N=C(N)NC(=N)NCCc1ccccc1 [Phenformin] (partner 250 µM), for which the relative viability came out at 0.355.

On to `COCC1(CO)C(=O)C2CCN1CC2` (stereo unspecified) [PRIMA-1MET] + CC(=O)c1c(C)c2cnc(Nc3ccc(N4CCNCC4)cn3)nc2n(C2CCCC2)c1=O [Palbociclib] (partner 0.5 µM), for which the relative viability was found to be 0.484.
